Results: patent publication US20170198011A1, “COMPOSITION FOR TREATING SEPSIS OR SEPTIC SHOCK COMPRISING THE PEPTIDE ORIGINATED FROM THE SMAD6” (Medpacto, Inc., priority 2011, published 2017)
One block for each molecule: values may come before it. Where no end group is shown, it is not given here.

Tests used:
[1] = system: TGF-β1 signaling (Smad binding element); assay: SBE-Luc reporter luciferase assay in CMT-93 cells; assay type: cell-based; settings: TGF-β1 5 ng/ml 2 hrs
Excerpt: FIG. 2A is a graph showing results of the luciferase assay conducted with CMT-93 cells after transfection with SBE-Luc reporter plasmid plus an empty vector, a plasmid carrying Myc-Smad6 (400-441), or a plasmid carrying full-length Smad6,
FIG. 3D is a graph showing TGF-β-induced luciferase activity in CMT-93 cells transformed with an SBE-Luc reporter plasmid plus an empty vector or a Myc-Smad6 (422-441) plasmid, and
(§1) To examine whether the small region of Smad6 MH2 domain specifically suppresses LPS-induced NF-κB signaling, a 5×NF-κB-Luc reporter plasmid and an SBE (Smad binding element)-Luc reporter plasmid were separately transfected, together with a plasmid expressing a peptide from amino acid 400 to 441 of Smad6, into a CMT-93 epithelial cell line with the aid of Effectene (Qiagen). Following treatment with LPS (10 ng/ml) or TGF-β1 (5 ng/ml) for 2 hrs, the transfected cells were examined for luciferase activity. […] All experiments were independently repeated three times, while a full-length Smad6 plasmid was used as a control.

[2] = molecular target: T1, Pellino-1N domain (Homo sapiens, UniProt Q96FA3); assay: Co-immunoprecipitation of Smad6 MH2 mutants with HA-tagged Pellino-1N in HEK293 cells; assay type: binding; settings: truncated mutants of Smad6 MH2 domain
T1 construct: expressed in transfected cells; host or cells: HEK293
T1 sequence (Q96FA3 1-140 limits assumed): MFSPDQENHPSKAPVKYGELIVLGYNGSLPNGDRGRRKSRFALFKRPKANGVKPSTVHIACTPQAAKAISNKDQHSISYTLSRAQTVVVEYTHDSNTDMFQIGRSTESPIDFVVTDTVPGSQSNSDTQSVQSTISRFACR
Excerpt: To examine a minimum region of Smad6 that binds certainly to Pellino-1, which specifically interrupts NF-κB (κB nuclear factor kappa B) signaling, mutants were constructed by consecutively truncating the Smad6 MH2 domain, and analyzed using a co-immunoprecipitation assay.
[…] Plasmids carrying genes for different regions of Smad6 (Myc-Smad6 MH2, Myc-Smad6 346F, Myc-Smad6 371F, Myc-Smad6 385F, Myc-Smad6 464R, Myc-Smad6 441R, Myc-Smad6 410R, Myc-Smad6 385-441, Myc-Smad6 385-427, Myc-Smad6 385-418, Myc-Smad6 385-410, Myc-Smad6 400-441, Myc-Smad6 400-427, Myc-Smad6 400-418, Myc-Smad6 400-410, Myc-Smad6 422-441) were constructed by amplifying a full-length Smad6 cDNA by PCR and subcloning it into the BamHI/XhoI site of the pSC3+MT 6×Myc vector. Myc-Smad6 R429A, Myc-Smad6 P432A, Myc-Smad6 P433G, Myc-Smad6 Y435F, and Myc-Smad6 I437D were created using a QuikChange mutagenesis kit (Stratagene).
A co-immunoprecipitation assay was carried out as follows. […]

[3] = system: NF-κB; assay: 5xNF-κB-Luc reporter luciferase assay in CMT-93 cells; assay type: cell-based; settings: LPS 10 ng/ml 2 hrs
Excerpt: FIG. 2B is a graph showing results of the luciferase assay conducted with CMT-93 cells after transfection with a 5×NF-κB-Luc reporter plasmid plus an empty vector, a plasmid carrying Myc-Smad6 (400-441), or a plasmid carrying full-length Smad6, and
FIG. 3E is a graph showing TGF-β-induced luciferase activity in CMT-93 cells transformed with a 5×NF-κB-Luc reporter plasmid plus an empty vector or a Myc-Smad6 (422-441) plasmid;
as §1

[4] = system: IκBα; assay: Immunoblot of LPS-induced IκBα degradation in stably transformed CMT-93 cells; assay type: cell-based; settings: CMT-93 cells stably expressing the region
Excerpt: To confirm the specific inhibitory activity of the Smad6 β-sheet small region against NF-κB signaling, the epithelial cell line CMT-93, which is susceptible to both TGF-β1 and LPS, was transformed to stably express the Smad6 β-sheet region.

[5] = system: IRAK1, TRAF6, MyD88; assay: Co-immunoprecipitation of Smad6 (422-441) with other TLR4 signaling proteins in HEK293 cells; assay type: binding; settings: Flag-IRAK1, Flag-TRAF6, Flag-MyD88
Protocol: (§2) A co-immunoprecipitation assay was carried out as follows. For use as antibodies in co-immunoprecipitation, mouse anti-HA (F-7), mouse anti-c-Myc (9E10), rabbit anti-IκBα (C-21), mouse anti-IRAK1 (F-4), and mouse anti-TRAF6 (D-10) were purchased from Santa Cruz Biotechnology (USA), the antibodies rabbit anti-Pellino-1 and rabbit anti-IRAK4 from Imgenex, the antibodies rabbit anti-Smad6, rabbit anti-MyD88 (D80F5), rabbit anti-IKKα, rabbit anti-phospho-IKKα/β, rabbit anti-RIP1 (D94C12), rabbit anti-IKKi (anti-IKKE; D61F9), rabbit anti-TBK1 (D1B4), rabbit anti-GRK2 from Cell Signaling, and the antibody anti-β-actin from Sigma. Cells were lysed in a lysis buffer (PBS containing 0.5% Triton X-100, 20 mM HEPES (pH 7.4), 150 mM NaCl, 12.5 mM β-glycerol phosphate, 1.5 mM MgCl2, 10 mM NaF, 2 mM DTT, 1 mM Na3O4V, 2 mM EGTA, 1 mM PMSF and protease inhibitor mixture), and harvested by centrifuging 13,000 rpm for 10 min. For immunoprecipitation, the cell lysate were incubated at 4° C. for 12 hrs with protein-A agarose beads and the above-mentioned antibodies. Afterwards, the beads were washed three times with a lysis buffer, and treated with a 2× sample buffer to separate the co-immunoprecipitates therefrom. The co-immunoprecipitates were boiled, followed by SDS-PAGE. […]

[6] = molecular target: T2, Pellino-1 (Homo sapiens, UniProt Q96FA3); assay: Co-immunoprecipitation of Smad6 truncated mutants with HA-tagged full length Pellino-1 in HEK293 cells; assay type: binding
T2 construct: plus an HA-tagged full length Pellino-1 plasmid; expressed in transfected cells; host or cells: HEK293
T2 sequence (Q96FA3 1-418): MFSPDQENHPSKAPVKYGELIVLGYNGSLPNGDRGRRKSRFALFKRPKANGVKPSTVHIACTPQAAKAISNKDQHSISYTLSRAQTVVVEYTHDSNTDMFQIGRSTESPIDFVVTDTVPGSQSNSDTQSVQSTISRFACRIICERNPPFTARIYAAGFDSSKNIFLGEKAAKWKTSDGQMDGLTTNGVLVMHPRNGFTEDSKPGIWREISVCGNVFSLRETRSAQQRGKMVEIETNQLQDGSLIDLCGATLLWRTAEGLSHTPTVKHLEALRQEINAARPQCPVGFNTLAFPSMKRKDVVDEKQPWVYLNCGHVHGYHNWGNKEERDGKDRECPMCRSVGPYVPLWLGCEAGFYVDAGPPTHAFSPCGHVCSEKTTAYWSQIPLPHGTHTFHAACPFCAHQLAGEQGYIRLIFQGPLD
Protocol: as §2

interaction with the Pellino-1N domain [2]: interact
Molecule: Myc-Smad6 400-441: plasmid-expressed Myc-tagged peptide region from amino acid 400 to 441 of the Smad6 MH2 domain (VWAYNRGEHPIFVNSPTLDAPGGRALVVRKVPPGYSIKVFDF; also: Myc tag, plasmid-expressed; UniProt O43541 400-441, looked up, fragment)
TGF-β1-mediated reporter activity [1]: did not suppress
NF-κB-mediated reporter activity [3]: selectively suppressed
LPS-induced IκBα degradation detected [4]: not

binding to Pellino-1 [6]: sufficient and minimally required
Molecule: Myc-Smad6 422-441: plasmid-expressed Myc-tagged minimum region, amino acid 422 to 441 of Smad6 (GGRALVVRKVPPGYSIKVFD; also: Myc tag, plasmid-expressed)
TGF-β1-mediated reporter activity [1]: did not suppressed
binding to other proteins involved in the TLR4 signaling pathway [5]: not to other proteins involved in the TLR4 signaling pathway
NF-κB-mediated reporter activity [3]: specifically suppressing

B1: full-length Smad6: full-length Smad6 plasmid used as a control (protein, UniProt O43541 1-496, looked up)
chain: MFRSKRSGLVRRLWRSRVVPDREEGGSGGGGGGDEDGSLGSRAEPAPRAREGGGCGRSEVRPVAPRRPRDAVGQRGAQGAGRRRRAGGPPRPMSEPGAGAGSSLLDVAEPGGPGWLPESDCETVTCCLFSERDAAGAPRDASDPLAGAALEPAGGGRSREARSRLLLLEQELKTVTYSLLKRLKERSLDTLLEAVESRGGVPGGCVLVPRADLRLGGQPAPPQLLLGRLFRWPDLQHAVELKPLCGCHSFAAAADGPTVCCNPYHFSRLCGPESPPPPYSRLSPRDEYKPLDLSDSTLSYTETEATNSLITAPGEFSDASMSPDATKPSHWCSVAYWEHRTRVGRLYAVYDQAVSIFYDLPQGSGFCLGQLNLEQRSESVRRTRSKIGFGILLSKEPDGVWAYNRGEHPIFVNSPTLDAPGGRALVVRKVPPGYSIKVFDFERSGLQHAPEPDAADGPYDPNSVRISFAKGWGPCYSRQFITSCPCWLEILLNNPR
modifications: full-length
notes: full-length Smad6 plasmid used as a control
TGF-β1-mediated reporter activity [1]: suppressed
NF-κB-mediated reporter activity [3]: suppressed
